Data from patent US7462480B2, “Stimulation of microbial dechlorination of polychorinated biphenyls with halogenated ethenes” (University of Maryland Biotechnology Institute, priority 2002, dated 2008).

Legend:
DF-1 = assay: anaerobic enrichment culture of PCB dechlorinating bacterium DF-1 with tetrachloroethene; format: cell-based, bacterium double flank-dechlorinating strain DF-1
Description: (§1) Culture Conditions. A sterile media was prepared composed of at least one of the following components in grams per liter (final concentration) of demineralized water: Na2CO3, 3.0; Na2HPO4, 0.6; NH4Cl, 0.5; cysteine-HCl.H2O, 0.25; Na2S.9H2O, 0.25; resazurin, 0.001. In addition, 1% (v/v) each of vitamin and trace element solutions was added. An anaerobic enrichment culture comprising either O-17 (GenBank Accession #: AF058005; Appl Environ Microbiol. 1998 September; 64(9):3359-67)or DF-1 (GenBank Accession #: AF393781; Appl Environ Microbiol. 2002 February; 68(2):807-12)capable of dechlorination of 2,3,5,6-tetrachlorobiphenyl (2,3,5,6-CB) in the absence of sediment was used in this study. Cultures were incubated at 30° C. in the dark. All gases were passed through a column of reduced copper turnings at 350° C. to remove traces of O2. Media (8 ml) were dispersed into culture tubes (16×160 mm) and sealed with Teflon®-lined butyl stoppers (The West Company, Lionville, Pa.) secured by aluminum crimp collars (Bellco Glass, Inc., Vineland, N.J.).
(§2) Congener 2,3,5,6-tetrachlorobiphenyl (2,3,5,6-CB) was also solubilized in tetrachloroethene and added to a fresh anaerobic enrichment culture comprising either O-17 or DF-1 and was incubated under strict anaerobic conditions at 30° C. in the dark. […]

[1] = partially soluble in water; cited from earlier work
O-17 = assay: anaerobic enrichment culture of PCB dechlorinating bacterium O-17 with tetrachloroethene; format: cell-based, bacterium ortho-dechlorinating strain O-17
Description: as §1, §2

[2] = 2,3,5,6-CB solubilized in tetrachloroethene, strict anaerobic conditions, 30° C. in the dark
[3] = PCBs and tetrachloroethene combined, simultaneously dechlorinated

ClC(Cl)=C(Cl)Cl [tetrachloroethene]
population growth density relative to culture containing 2,3,5,6-CB alone (DF-1; [2]): increased population growth density
effect on PCB dechlorination (DF-1; [3]): did not inhibit or significantly delay PCB dechlorination
solubility in water [1]: up to 1 mM
population growth density relative to culture containing 2,3,5,6-CB alone (O-17; [2]): increased population growth density
effect on PCB dechlorination (O-17; [3]): did not inhibit or significantly delay PCB dechlorination
